Where “and” joins values, the source holds several entries; their conditions need not be identical. Equal values may be shown once. Records with an inconclusive call do not appear.
System: Lewis lung carcinoma i.m., BDF1 mice, T/C %
Experiment: NCI In Vivo Anticancer Drug Screen. Data for tumor model Lewis Lung Carcinoma (intramuscular) in B6D2F1 (BDF1) mice
Procedure, shortened: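 Compound given to mice with transplantable tumours; survival or tumour size compared against the vehicle control group, reported as T divided by C.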

[1] = endpoint: mean tumor weight (est.), dose: 12.5 mg/kg/injection, schedule: Q01DX011 (ip), vehicle: saline, higher = larger tumour
[2] = endpoint: median survival time, dose: 12.5 mg/kg/injection, schedule: Q01DX011 (ip), vehicle: saline, higher = longer survival
[3] = endpoint: median survival time, dose: 25.0 mg/kg/injection, schedule: Q01DX011 (ip), vehicle: saline, higher = longer survival
[4] = endpoint: mean tumor weight (est.), dose: 12.5 mg/kg/injection, schedule: Q01DX011 (ip), vehicle: saline with Tween-80, higher = larger tumour
[5] = endpoint: mean tumor weight (est.), dose: 25.0 mg/kg/injection, schedule: Q01DX011 (ip), vehicle: saline with Tween-80, higher = larger tumour
[6] = endpoint: median survival time, dose: 12.5 mg/kg/injection, schedule: Q01DX011 (ip), vehicle: saline with Tween-80, higher = longer survival
[7] = endpoint: median survival time, dose: 25.0 mg/kg/injection, schedule: Q01DX011 (ip), vehicle: saline with Tween-80, higher = longer survival

Cc1cc[n+](CCc2ccccc2)cc1
T/C [1]: 76 % of control
T/C (endpoint: mean tumor weight (est.), dose: 25.0 mg/kg/injection, schedule: Q01DX011 (ip), vehicle: saline, higher = larger tumour): 95 % of control
T/C (endpoint: mean tumor weight (est.), dose: 50.0 mg/kg/injection, schedule: Q01DX011 (ip), vehicle: saline, higher = larger tumour): 75 % of control
T/C [2]: 94 % of control
T/C [3]: 102 % of control
T/C (endpoint: median survival time, dose: 50.0 mg/kg/injection, schedule: Q01DX011 (ip), vehicle: saline, higher = longer survival): 106 % of control

Nc1cc(I)c2cccnc2c1O
T/C (endpoint: mean tumor weight (est.), dose: 6.25 mg/kg/injection, schedule: Q01DX011 (ip), vehicle: saline with Tween-80, higher = larger tumour): 87 % of control
T/C [4]: 97 % of control
T/C [5]: 87 % of control
T/C (endpoint: median survival time, dose: 6.25 mg/kg/injection, schedule: Q01DX011 (ip), vehicle: saline with Tween-80, higher = longer survival): 114 % of control
T/C [6]: 108 % of control
T/C [7]: 104 % of control

CC(C)NCC(O)COc1cccc2ccccc12 (stereo not drawn)
T/C (endpoint: median survival time, dose: 8.0 mg/kg/injection, schedule: Q01DX009 (ip), vehicle: Klucel (hydroxypropylcellulose) (HPC), higher = longer survival): 121 % of control
T/C (endpoint: median survival time, dose: 16.0 mg/kg/injection, schedule: Q01DX009 (ip), vehicle: Klucel (hydroxypropylcellulose) (HPC), higher = longer survival): 121 % of control
T/C (endpoint: median survival time, dose: 32.0 mg/kg/injection, schedule: Q01DX009 (ip), vehicle: Klucel (hydroxypropylcellulose) (HPC), higher = longer survival): 90 % of control
T/C (endpoint: median survival time, dose: 64.0 mg/kg/injection, schedule: Q01DX009 (ip), vehicle: Klucel (hydroxypropylcellulose) (HPC), higher = longer survival): 110 % of control

CCC/C(C)=N/Nc1ccccn1
T/C [4]: 85 % of control
T/C [5]: 84 % of control
T/C (endpoint: mean tumor weight (est.), dose: 50.0 mg/kg/injection, schedule: Q01DX011 (ip), vehicle: saline with Tween-80, higher = larger tumour): 81 % of control
T/C [6]: 94 % of control
T/C [7]: 88 % of control

COC(=O)C[C@](O)(CCC(C)(C)O)C(=O)O[C@@H]1C(OC)=C[C@]23CCCN2CCc2cc4c(cc2[C@H]13)OCO4
T/C (endpoint: mean tumor weight, dose: 0.25 mg/kg/injection, schedule: Q01DX011 (ip), vehicle: saline, higher = larger tumour): 103 % of control
T/C (endpoint: mean tumor weight, dose: 0.5 mg/kg/injection, schedule: Q01DX011 (ip), vehicle: saline, higher = larger tumour): 104 % of control
T/C (endpoint: mean tumor weight, dose: 0.5 mg/kg/injection, schedule: Q01DX011 (ip), vehicle: water, higher = larger tumour): 75 % of control
T/C (endpoint: mean tumor weight, dose: 1.0 mg/kg/injection, schedule: Q01DX011 (ip), vehicle: water, higher = larger tumour): 106 % of control
T/C (endpoint: median survival time, dose: 0.25 mg/kg/injection, schedule: Q01DX011 (ip), vehicle: saline, higher = longer survival): 114 % of control
T/C (endpoint: median survival time, dose: 0.5 mg/kg/injection, schedule: Q01DX011 (ip), vehicle: saline, higher = longer survival): 114 % of control

N=C(N)SCc1c2ccccc2c(CSC(=N)N)c2ccccc12
T/C (endpoint: mean tumor weight, dose: 12.5 mg/kg/injection, schedule: Q01DX011 (ip), vehicle: saline, higher = larger tumour): 94 % of control
T/C (endpoint: mean tumor weight, dose: 25.0 mg/kg/injection, schedule: Q01DX011 (ip), vehicle: saline, higher = larger tumour): 84 % of control
T/C (endpoint: mean tumor weight, dose: 50.0 mg/kg/injection, schedule: Q01DX011 (ip), vehicle: saline, higher = larger tumour): 52 % of control
T/C [2]: 110 % of control
T/C [3]: 104 % of control

O=C1CN=C(c2ccc[nH]2)c2cc(Cl)ccc2N1
T/C (endpoint: mean tumor weight, dose: 6.25 mg/kg/injection, schedule: Q01DX011 (ip), vehicle: Klucel (hydroxypropylcellulose) (HPC), higher = larger tumour): 74 % of control
T/C (endpoint: mean tumor weight, dose: 12.5 mg/kg/injection, schedule: Q01DX011 (ip), vehicle: Klucel (hydroxypropylcellulose) (HPC), higher = larger tumour): 111 % of control
T/C (endpoint: mean tumor weight, dose: 25.0 mg/kg/injection, schedule: Q01DX011 (ip), vehicle: Klucel (hydroxypropylcellulose) (HPC), higher = larger tumour): 82 % of control
T/C (endpoint: mean tumor weight, dose: 50.0 mg/kg/injection, schedule: Q01DX011 (ip), vehicle: Klucel (hydroxypropylcellulose) (HPC), higher = larger tumour): 96 % of control
T/C (endpoint: mean tumor weight, dose: 100.0 mg/kg/injection, schedule: Q01DX011 (ip), vehicle: Klucel (hydroxypropylcellulose) (HPC), higher = larger tumour): 95 % of control
T/C (endpoint: median survival time, dose: 6.25 mg/kg/injection, schedule: Q01DX011 (ip), vehicle: Klucel (hydroxypropylcellulose) (HPC), higher = longer survival): 97 % of control
T/C (endpoint: median survival time, dose: 12.5 mg/kg/injection, schedule: Q01DX011 (ip), vehicle: Klucel (hydroxypropylcellulose) (HPC), higher = longer survival): 100 % of control
T/C (endpoint: median survival time, dose: 25.0 mg/kg/injection, schedule: Q01DX011 (ip), vehicle: Klucel (hydroxypropylcellulose) (HPC), higher = longer survival): 88 % of control and 111 % of control
T/C (endpoint: median survival time, dose: 50.0 mg/kg/injection, schedule: Q01DX011 (ip), vehicle: Klucel (hydroxypropylcellulose) (HPC), higher = longer survival): 102 % of control
T/C (endpoint: median survival time, dose: 100.0 mg/kg/injection, schedule: Q01DX011 (ip), vehicle: Klucel (hydroxypropylcellulose) (HPC), higher = longer survival): 100 % of control

CCOC(N)=O
T/C [3]: 110 % of control
T/C (endpoint: median survival time, dose: 100.0 mg/kg/injection, schedule: Q01DX011 (ip), vehicle: saline, higher = longer survival): 100 % of control
T/C (endpoint: median survival time, dose: 200.0 mg/kg/injection, schedule: Q01DX011 (ip), vehicle: saline, higher = longer survival): 104 % of control
T/C (endpoint: median survival time, dose: 400.0 mg/kg/injection, schedule: Q01DX011 (ip), vehicle: saline, higher = longer survival): 110 % of control

CC(=O)[O][Hg][c]1s[c]([Hg][O]C(C)=O)[c]([Hg][O]C(C)=O)[c]1[Hg][O]C(C)=O
T/C (endpoint: mean tumor weight (est.), dose: 6.25 mg/kg/injection, schedule: Q01DX011 (ip), vehicle: saline, higher = larger tumour): 45 % of control
T/C [1]: 37 % of control
T/C [2]: 91 % of control

Nc1nc(=O)n(C2OC(CO)C(O)C2O)cc1F (stereo not drawn)
T/C (endpoint: median survival time, dose: 4.0 mg/kg/injection, schedule: Q01DX011 (ip), vehicle: saline, higher = longer survival): 98 % of control
T/C (endpoint: median survival time, dose: 8.0 mg/kg/injection, schedule: Q01DX011 (ip), vehicle: saline, higher = longer survival): 117 % of control
T/C (endpoint: median survival time, dose: 16.0 mg/kg/injection, schedule: Q01DX011 (ip), vehicle: saline, higher = longer survival): 98 % of control
T/C (endpoint: median survival time, dose: 32.0 mg/kg/injection, schedule: Q01DX011 (ip), vehicle: saline, higher = longer survival): 110 % of control

From PubChem BioAssay AID272 (DTP/NCI, 2004)
